Here are results for ten molecules from ChEMBL document CHEMBL1201862, “PubChem BioAssay data set” (2004).

Some test systems named below: SW-620; NCI-H23; A549; SN12C; Hs-578T; UACC-62; ACHN; MCF7; NCI-H522; SNB-75; HCT-116; NCI/ADR-RES; MDA-MB-435; TK-10; SK-MEL-28; OVCAR-5; OVCAR-8; HOP-92; CAKI-1; UACC-257.
Common to all, as to test: NCI tumour cell line growth inhibition, 48 h

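Five compound concentrations were applied to cells in 96-well plates for 48 hours; endpoints were derived by simple linear interpolation of the resulting dose-response curve. GI50 marks 50% less growth.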 Active and inactive are the calls of the source. Rule as the data show it: active = GI50 up to about 1.1 µM and inactive = higher.

For `COc1cc(/C=[N+](\[O-])c2ccccc2Cl)ccc1OC(=S)S`, the GI50 in the assay on SW-620 is 37.1 µM (inactive); in the assay with NCI-H23, 28.5 µM (inactive); with A549 it was 39.8 µM (inactive); in the assay on SN12C it was 45.7 µM (inactive); in the assay with Hs-578T, 61.7 µM (inactive); in the assay on UACC-62, 21 µM (inactive). Further, the GI50 with ACHN is 34 µM (inactive); with MCF7 it was 27.6 µM (inactive); in the assay with NCI-H522, 26.5 µM (inactive); in the assay on SNB-75, 18 µM (inactive); in the assay with HCT-116 it was 32.5 µM (inactive); with NCI/ADR-RES, 26.7 µM (inactive). In addition, the GI50 in the assay with MDA-MB-435 is 20.8 µM (inactive); with TK-10, 64.4 µM (inactive); in the assay on SK-MEL-28, 35 µM (inactive); with OVCAR-5 it was > 100 µM (inactive); in the assay with OVCAR-8, 32.7 µM (inactive); in the assay with HOP-92 it was 10.1 µM (inactive). For the same molecule, the GI50 is 31.7 µM (inactive) in the assay with CAKI-1 and 26.4 µM (inactive) in the assay on UACC-257.

Take `O=C(CCl)Nc1ccc(C(=O)N/N=C/c2ccc(Cl)cc2)cc1`: the GI50 is 2.74 µM (inactive) in the assay with SW-620; 2.44 µM (inactive) in the assay with NCI-H23; 6.07 µM (inactive) with A549; 2.84 µM (inactive) in the assay on SN12C; 2.82 µM (inactive) in the assay with Hs-578T; 3.56 µM (inactive) with UACC-62. Moreover, the GI50 in the assay with ACHN was 2.59 µM (inactive); with MCF7, 5.09 µM (inactive); in the assay on NCI-H522, 1.75 µM (inactive); with SNB-75, 14.9 µM (inactive); in the assay with HCT-116, 1.8 µM (inactive); in the assay on NCI/ADR-RES, 2.37 µM (inactive). For the same molecule, the GI50 in the assay on MDA-MB-435 was 1.82 µM (inactive); with TK-10 it was 15.9 µM (inactive); with SK-MEL-28, 5.68 µM (inactive); with OVCAR-5 it was 18.8 µM (inactive); in the assay on OVCAR-8, 2.29 µM (inactive); with HOP-92, 2 µM (inactive). In addition, the GI50 with CAKI-1 is 2.82 µM (inactive); in the assay with UACC-257, 1.67 µM (inactive).

As to `CC1(C)OCC(C2OC(=O)C(OCc3ccccc3)=C2OCc2ccccc2)O1` (stereo not given), the GI50 with SW-620 was 51.8 µM (inactive); in the assay with NCI-H23, 18.4 µM (inactive); with A549, 32.9 µM (inactive); with SN12C, 39.4 µM (inactive); in the assay with Hs-578T it was 70.6 µM (inactive); with UACC-62 it was 22.4 µM (inactive). Also, the GI50 in the assay on ACHN was 31.5 µM (inactive); in the assay on MCF7, 50.5 µM (inactive); in the assay with NCI-H522 it was 23.3 µM (inactive); in the assay on SNB-75, 49.9 µM (inactive); with HCT-116, 31.3 µM (inactive); in the assay with NCI/ADR-RES, 35.2 µM (inactive). Further, the GI50 was 26.9 µM (inactive) in the assay with MDA-MB-435; 44.3 µM (inactive) with TK-10; 65.6 µM (inactive) with SK-MEL-28; 60.1 µM (inactive) with OVCAR-5; 50.4 µM (inactive) in the assay on OVCAR-8; 23 µM (inactive) in the assay with HOP-92. Moreover, the GI50 was 45.2 µM (inactive) with CAKI-1 and 29.9 µM (inactive) in the assay with UACC-257.

`Oc1[nH]c(Nc2cccc(CC(F)(F)F)c2)nc2ncnc1-2`: the GI50 with SW-620, in the assay with NCI-H23, with A549, in the assay with SN12C, with Hs-578T and with UACC-62 was > 100 µM (inactive) each time. The GI50 was > 100 µM (inactive) in the assay on ACHN; > 100 µM (inactive) in the assay with MCF7; > 100 µM (inactive) with NCI-H522; 95.5 µM (inactive) with SNB-75; > 100 µM (inactive) in the assay with HCT-116; > 100 µM (inactive) with NCI/ADR-RES. Further, the GI50 in the assay with MDA-MB-435, in the assay on TK-10, in the assay on SK-MEL-28, in the assay on OVCAR-5, with OVCAR-8 and in the assay with HOP-92 was > 100 µM (inactive) throughout. The GI50 in the assay on CAKI-1 and in the assay with UACC-257 was > 100 µM (inactive) throughout.

On to `CC(C)OC(=O)c1ccc(CCc2cc(O)c(Br)cc2O)cc1`, for which the GI50 in the assay with SW-620 was 8.65 µM (inactive); in the assay on NCI-H23 it was 8.85 µM (inactive); in the assay on A549 it was 20.3 µM (inactive); in the assay with SN12C, 13.4 µM (inactive); in the assay on Hs-578T it was 14.6 µM (inactive); in the assay on UACC-62, 20.2 µM (inactive). Besides, the GI50 is 18 µM (inactive) in the assay on ACHN; 11.7 µM (inactive) with MCF7; 6.24 µM (inactive) in the assay on NCI-H522; 21 µM (inactive) with SNB-75; 11.5 µM (inactive) with HCT-116; 9.2 µM (inactive) in the assay with NCI/ADR-RES. The GI50 is 8.11 µM (inactive) with MDA-MB-435; 16.9 µM (inactive) in the assay on TK-10; 13.9 µM (inactive) in the assay with SK-MEL-28; 17.5 µM (inactive) in the assay on OVCAR-5; 13.9 µM (inactive) in the assay with OVCAR-8; 20.9 µM (inactive) in the assay with HOP-92. Moreover, the GI50 in the assay with CAKI-1 was 11.4 µM (inactive); in the assay on UACC-257, 13.6 µM (inactive).

In the case of `C[C@]12CCC(=O)C=C1CC[C@@H]1[C@@H]2CC[C@]2(C)C(=O)[C@H](n3ccnc3)C[C@@H]12`, the GI50 in the assay on SW-620, with NCI-H23, in the assay on A549, with SN12C, in the assay with Hs-578T and in the assay with UACC-62 was > 100 µM (inactive) each time. In addition, the GI50 in the assay on ACHN, in the assay with MCF7, in the assay on NCI-H522, in the assay with SNB-75, in the assay on HCT-116 and in the assay on NCI/ADR-RES was > 100 µM (inactive) throughout. The GI50 in the assay on MDA-MB-435, in the assay with TK-10, in the assay on SK-MEL-28, with OVCAR-5, in the assay on OVCAR-8 and in the assay with HOP-92 was > 100 µM (inactive) throughout. The GI50 in the assay with CAKI-1 and in the assay on UACC-257 was > 100 µM (inactive) throughout.

As for `CC(=O)N1N=C(c2ccc3ccccc3c2O)CC1c1ccc(N(C)C)cc1` (stereo not given), the GI50 in the assay with SW-620, with NCI-H23, with A549, with SN12C, with Hs-578T and with UACC-62 was > 100 µM (inactive) each time. In addition, the GI50 in the assay on ACHN, in the assay with MCF7, in the assay with NCI-H522, with SNB-75, with HCT-116 and in the assay on NCI/ADR-RES was > 100 µM (inactive) throughout. For the same molecule, the GI50 in the assay with MDA-MB-435, in the assay on TK-10, in the assay with SK-MEL-28, in the assay on OVCAR-5, with OVCAR-8 and in the assay on HOP-92 was > 100 µM (inactive) each time. Besides, the GI50 in the assay on CAKI-1 and in the assay with UACC-257 was > 100 µM (inactive) throughout.

For `Cc1cc(O)c2c(c1)C(C1c3cccc(O)c3C(=O)c3c(O)cc(C)cc31)c1cccc(O)c1C2=O` (stereo not given), the GI50 was 0.448 µM (active) in the assay on SW-620; 0.37 µM (active) with NCI-H23; 0.239 µM (active) with A549; 0.322 µM (active) in the assay with SN12C; 0.175 µM (active) in the assay with Hs-578T; 0.269 µM (active) with UACC-62. Further, the GI50 is 0.337 µM (active) in the assay on ACHN; 0.331 µM (active) in the assay with MCF7; 0.417 µM (active) in the assay with NCI-H522; 0.243 µM (active) with SNB-75; 0.314 µM (active) in the assay with HCT-116; 0.319 µM (active) in the assay with NCI/ADR-RES. The GI50 with MDA-MB-435 was 0.34 µM (active); in the assay with TK-10, 0.598 µM (active); with SK-MEL-28 it was 0.394 µM (active); with OVCAR-5 it was 0.766 µM (active); in the assay on OVCAR-8 it was 0.335 µM (active); with HOP-92 it was 0.258 µM (active). The values for the GI50 in the assay with CAKI-1 and in the assay on UACC-257 were 2.86 µM (inactive) and 0.3 µM (active), respectively.

Consider `Cn1/c(=N\N=C(\CNCCO)[C@@H](O)[C@@H]2OC(c3ccccc3)OC[C@H]2O)sc2ccccc21` (stereo not given in full), for which the GI50 in the assay with SW-620 was 18 µM (inactive); with NCI-H23 it was 20 µM (inactive); in the assay with A549 it was 15.8 µM (inactive); with SN12C, 17.9 µM (inactive); in the assay with Hs-578T it was 14.8 µM (inactive); with UACC-62, 16.9 µM (inactive). The GI50 was 19.9 µM (inactive) with ACHN; 16.7 µM (inactive) in the assay with MCF7; 17.6 µM (inactive) in the assay on NCI-H522; 16 µM (inactive) in the assay on SNB-75; 16 µM (inactive) with HCT-116; 50.7 µM (inactive) in the assay with NCI/ADR-RES. Further, the GI50 with MDA-MB-435 was 17.9 µM (inactive); in the assay on TK-10, 18.5 µM (inactive); in the assay with SK-MEL-28, 17.3 µM (inactive); in the assay on OVCAR-5, 18.2 µM (inactive); in the assay with OVCAR-8 it was 19.2 µM (inactive); with HOP-92 it was 11 µM (inactive). Moreover, the GI50 in the assay with CAKI-1 is 15.6 µM (inactive); in the assay with UACC-257 it was 19.6 µM (inactive).

On to `CN(C)CCNC(=O)c1ccc(NCCCN(C)CCCNc2ccc3c(=O)n(CCN(C)C)c(=O)n4c5ccccc5c(=O)c2c34)c2c(O)c3ccccc3nc12`, for which the GI50 is < 0.01 µM (active) in the assay on SW-620; < 0.0146 µM (active) in the assay with NCI-H23; < 0.01 µM (active) in the assay on A549; < 0.01 µM (active) in the assay on SN12C; 0.0285 µM (active) in the assay on Hs-578T; 0.0678 µM (active) in the assay on UACC-62. The GI50 in the assay on ACHN was < 0.01 µM (active); in the assay with MCF7, < 0.01 µM (active); in the assay on NCI-H522, 0.0102 µM (active); in the assay on SNB-75, < 0.01 µM (active); with HCT-116, < 0.01 µM (active); in the assay on NCI/ADR-RES it was 0.221 µM (active). Besides, the GI50 in the assay on MDA-MB-435 is 0.0124 µM (active); in the assay with TK-10 it was 0.0471 µM (active); in the assay with SK-MEL-28, 0.234 µM (active); in the assay on OVCAR-5, 0.0192 µM (active); with OVCAR-8, < 0.01 µM (active); in the assay with HOP-92, 0.114 µM (active). Besides, the GI50 is 0.0258 µM (active) in the assay with CAKI-1 and 0.162 µM (active) with UACC-257.
